Tests used:
[1] = Stability / shelf life of the obtained reduced coenzyme Q10; format: physicochemical
[2] = Water-solubility after phosphorylation; format: physicochemical; details: usable on injection

## COc1c(O)c(C)c(C/C=C(\C)CC/C=C(\C)CC/C=C(\C)CC/C=C(\C)CC/C=C(\C)CC/C=C(\C)CC/C=C(\C)CC/C=C(\C)CC/C=C(\C)CCC=C(C)C)c(O)c1OC [reduced coenzyme Q10]
[1]; below 50° C.
  shelf life: over 2 years
[1]; phosphoric acid solution of pH6.0-8.2
  stability in phosphoric acid solution: remains its qualities
[2]
  water-solubility: completely water soluble

Reference: patent US8460904B2, “Method of producing reduced coenzyme Q10” (Zhejiang Zhongning Business Co., Ltd., priority 2008, dated 2013)
